Results as given in patent US11878975B2, “Substituted indole compounds useful as TLR inhibitors” (BRISTOL-MYERS SQUIBB COMPANY, priority 2017, dated 2024).

Tests used:
Assay type in all cases: cell-based
human TLR7 = target: T1, human TLR7 (Homo sapiens, UniProt Q9NYK1); test: TLR7 inhibition reporter assay (HEK-Blue cells, SEAP reporter, gardiquimod stimulation); details: HEK-Blue cells overexpressing human TLR7, SEAP reporter, gardiquimod 7.5 μM
T1 construct: host or cells: HEK-Blue cells
T1 sequence (Q9NYK1 27-1049): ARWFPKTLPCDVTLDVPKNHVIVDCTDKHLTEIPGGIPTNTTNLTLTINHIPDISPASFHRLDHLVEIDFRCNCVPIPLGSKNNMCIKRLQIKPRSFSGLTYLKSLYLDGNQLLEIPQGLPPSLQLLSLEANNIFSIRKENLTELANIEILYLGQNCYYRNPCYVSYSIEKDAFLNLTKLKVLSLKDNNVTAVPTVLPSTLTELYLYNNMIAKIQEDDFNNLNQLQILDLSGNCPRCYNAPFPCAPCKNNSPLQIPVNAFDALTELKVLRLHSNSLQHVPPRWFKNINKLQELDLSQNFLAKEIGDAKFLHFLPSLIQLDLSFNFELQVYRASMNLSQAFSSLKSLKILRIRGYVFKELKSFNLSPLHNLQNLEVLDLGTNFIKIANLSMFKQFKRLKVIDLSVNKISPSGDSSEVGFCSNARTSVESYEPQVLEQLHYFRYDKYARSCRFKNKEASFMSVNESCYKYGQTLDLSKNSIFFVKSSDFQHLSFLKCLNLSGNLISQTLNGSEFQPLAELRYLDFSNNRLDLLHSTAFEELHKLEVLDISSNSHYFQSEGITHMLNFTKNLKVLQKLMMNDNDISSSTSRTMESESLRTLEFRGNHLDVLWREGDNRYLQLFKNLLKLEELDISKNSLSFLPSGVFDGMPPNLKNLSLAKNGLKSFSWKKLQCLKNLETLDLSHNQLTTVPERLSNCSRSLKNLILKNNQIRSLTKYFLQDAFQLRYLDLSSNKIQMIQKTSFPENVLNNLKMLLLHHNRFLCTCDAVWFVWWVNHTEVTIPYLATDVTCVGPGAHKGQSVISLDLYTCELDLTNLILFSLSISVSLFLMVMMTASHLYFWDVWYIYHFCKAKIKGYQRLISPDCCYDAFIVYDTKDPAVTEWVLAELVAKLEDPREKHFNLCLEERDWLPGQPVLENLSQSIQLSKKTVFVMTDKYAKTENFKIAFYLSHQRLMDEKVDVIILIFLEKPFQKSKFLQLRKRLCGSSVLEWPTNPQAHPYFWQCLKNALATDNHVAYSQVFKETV
Summary of the method: (§1)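 Percent inhibition is derived from SEAP signal, scaled between agonist-plus-DMSO wells and wells given a known inhibitor. Test compounds (0.05 nM–50 μM) are pre-incubated 30 min at room temperature before agonist addition (TLR7: 7.5 μM gardiquimod; TLR8: 15.9 μM R848; TLR9: 5 nM ODN2006) and 22 h culture at 37 °C.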

human TLR9 = target: T2, human TLR9 (Homo sapiens, UniProt Q9NR96); test: TLR9 inhibition reporter assay (HEK-Blue cells, SEAP reporter, ODN2006 stimulation); details: HEK-Blue cells overexpressing human TLR9, SEAP reporter, ODN2006 5 nM
T2 construct: host or cells: HEK-Blue cells
T2 sequence (Q9NR96 26-1032): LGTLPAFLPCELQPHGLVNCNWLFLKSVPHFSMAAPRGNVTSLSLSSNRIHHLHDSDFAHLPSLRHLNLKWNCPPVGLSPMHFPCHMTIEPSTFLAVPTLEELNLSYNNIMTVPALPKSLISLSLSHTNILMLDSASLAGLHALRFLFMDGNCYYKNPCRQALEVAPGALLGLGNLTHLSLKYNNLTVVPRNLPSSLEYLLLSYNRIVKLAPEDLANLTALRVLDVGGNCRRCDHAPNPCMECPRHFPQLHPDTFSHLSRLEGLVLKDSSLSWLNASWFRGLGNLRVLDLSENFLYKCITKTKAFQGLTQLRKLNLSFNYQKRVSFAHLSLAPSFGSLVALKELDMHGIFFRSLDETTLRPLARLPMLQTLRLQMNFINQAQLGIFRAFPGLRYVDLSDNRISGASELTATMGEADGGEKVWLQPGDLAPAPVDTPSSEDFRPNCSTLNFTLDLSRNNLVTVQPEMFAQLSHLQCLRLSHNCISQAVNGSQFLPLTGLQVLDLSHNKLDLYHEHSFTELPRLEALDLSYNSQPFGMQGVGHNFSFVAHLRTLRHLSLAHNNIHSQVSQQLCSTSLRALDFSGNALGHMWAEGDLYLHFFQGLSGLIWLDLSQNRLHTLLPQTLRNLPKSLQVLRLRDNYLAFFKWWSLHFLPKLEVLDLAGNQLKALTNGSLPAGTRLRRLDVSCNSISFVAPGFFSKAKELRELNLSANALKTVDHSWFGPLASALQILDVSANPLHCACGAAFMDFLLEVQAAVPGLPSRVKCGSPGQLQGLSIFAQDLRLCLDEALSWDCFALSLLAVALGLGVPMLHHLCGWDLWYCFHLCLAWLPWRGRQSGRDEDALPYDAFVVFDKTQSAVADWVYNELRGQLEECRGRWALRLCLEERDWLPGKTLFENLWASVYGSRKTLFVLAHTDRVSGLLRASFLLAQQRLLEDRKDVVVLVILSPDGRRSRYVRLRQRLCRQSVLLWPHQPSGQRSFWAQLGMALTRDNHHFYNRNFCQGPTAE
Summary of the method: as §1

human TLR8 = target: T3, human TLR8 (Homo sapiens, UniProt Q9NR97); test: TLR8 inhibition reporter assay (HEK-Blue cells, SEAP reporter, R848 stimulation); details: HEK-Blue cells overexpressing human TLR8, SEAP reporter, R848 15.9 μM
T3 construct: host or cells: HEK-Blue cells
T3 sequence (Q9NR97 27-1041): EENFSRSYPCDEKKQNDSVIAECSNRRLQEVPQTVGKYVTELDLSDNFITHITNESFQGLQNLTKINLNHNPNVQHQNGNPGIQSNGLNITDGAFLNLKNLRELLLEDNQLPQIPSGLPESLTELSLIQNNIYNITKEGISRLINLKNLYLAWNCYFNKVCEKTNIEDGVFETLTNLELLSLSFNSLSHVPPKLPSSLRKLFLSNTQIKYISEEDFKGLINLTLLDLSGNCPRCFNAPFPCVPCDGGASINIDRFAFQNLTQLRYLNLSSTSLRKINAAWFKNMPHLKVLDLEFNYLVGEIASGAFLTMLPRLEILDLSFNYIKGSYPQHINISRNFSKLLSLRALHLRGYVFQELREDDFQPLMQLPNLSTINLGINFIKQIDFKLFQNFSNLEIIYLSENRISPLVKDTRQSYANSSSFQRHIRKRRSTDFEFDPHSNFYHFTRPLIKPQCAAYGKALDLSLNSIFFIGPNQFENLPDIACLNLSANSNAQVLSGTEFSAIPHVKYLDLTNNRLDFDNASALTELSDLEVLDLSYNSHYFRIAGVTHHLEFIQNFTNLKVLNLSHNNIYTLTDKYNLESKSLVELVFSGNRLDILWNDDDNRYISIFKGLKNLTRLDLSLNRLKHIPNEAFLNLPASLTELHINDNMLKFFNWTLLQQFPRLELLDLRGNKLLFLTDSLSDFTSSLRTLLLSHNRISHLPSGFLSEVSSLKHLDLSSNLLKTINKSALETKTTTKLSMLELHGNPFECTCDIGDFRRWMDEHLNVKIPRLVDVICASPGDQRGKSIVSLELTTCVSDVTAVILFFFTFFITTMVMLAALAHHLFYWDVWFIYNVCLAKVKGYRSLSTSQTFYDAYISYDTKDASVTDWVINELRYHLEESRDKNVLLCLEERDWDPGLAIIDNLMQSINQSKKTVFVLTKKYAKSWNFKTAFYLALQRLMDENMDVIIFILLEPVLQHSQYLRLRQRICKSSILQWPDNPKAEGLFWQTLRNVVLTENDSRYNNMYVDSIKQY
Summary of the method: as §1

SMILES | IC50 (human TLR7) [nM] | IC50 (human TLR9) [nM] | IC50 (human TLR8) [nM]
CNCC(=O)NC1(C)CCC(c2ccc3[nH]c(-c4cc(OC)c5ncnn5c4)c(C(C)C)c3c2)CC1 (stereo not drawn) [Example 155, N-(4-(3-isopropyl-2-(8-methoxy-[1,2,4]triazolo[1,5-a]pyridin-6-yl)-1H-indol-5-yl)-1-methylcyclohexyl)-2-(methylamino)acetamide] | 6 | 3700 | 24
CNC(=O)CNC1CCC(c2ccc3[nH]c(-c4cc(OC)c5ncnn5c4)c(C(C)C)c3c2)CC1 (stereo not drawn) [Example 166] | 4 | 16900 | 18
COC1CCC(c2ccc3[nH]c(-c4cc(C)c5ncnn5c4)c(C(C)C)c3c2)CC1 (stereo not drawn) [Example 168, 6-(3-isopropyl-5-(4-methoxycyclohexyl)-1H-indol-2-yl)-8-methyl-[1,2,4]triazolo[1,5-a]pyridine] | 15 | 34400 | 265
Cc1cc(-c2[nH]c3ccc(C4CCC(O)CC4)cc3c2C(C)C)ccn1 (stereo not drawn) [Example 173] | 46 | > 50000 | 56
Cc1cc(-c2[nH]c3ccc(C4CCC(O)CC4)cc3c2C(C)C)ccn1 (stereo not drawn) [Example 174] | 164 | > 50000 | 518
Cc1cc(-c2[nH]c3ccc(C4CCC(O)(C(F)(F)F)CC4)cc3c2C(C)C)cc(C)n1 (stereo not drawn) [Example 175, 4-(2-(2,6-dimethylpyridin-4-yl)-3-isopropyl-1H-indol-5-yl)-1-(trifluoromethyl)cyclohexanol] | 37 | 2140 | 119
Cc1cc(-c2[nH]c3ccc(C4CCC(CN(C)C)CC4)cc3c2C(C)C)cc(C)n1 (stereo not drawn) [Example 176, 1-(4-(2-(2,6-dimethylpyridin-4-yl)-3-isopropyl-1H-indol-5-yl)cyclohexyl)-N,N-dimethylmethanamine] | 26 | 8890 | 55
Cc1cc(-c2[nH]c3ccc(C4CCCNC4)cc3c2C(C)C)ccn1 (stereo not drawn) [Example 184] | 12 | 866 | 3.8
Cc1cc(-c2[nH]c3ccc(C4CCCNC4)cc3c2C(C)C)ccn1 (stereo not drawn) [Example 185] | 18 | 1240 | 1.9
Cc1cc(-c2[nH]c3ccc(C4CCCNC4)cc3c2C(C)C)cc(C)n1 (stereo not drawn) [Example 186] | 4 | 280 | 3.6

The remaining lines, values ahead:

IC50 (human TLR7) [nM] | IC50 (human TLR9) [nM] | IC50 (human TLR8) [nM] | SMILES
0.43 | 2300 | 4.6 | Cc1cc(-c2[nH]c3ccc(C4CCC(N(C)C(=O)CN(C)C)CC4)cc3c2C(C)C)cn2ncnc12 (stereo not drawn) [Example 149]
0.35 | 1680 | 0.44 | COc1cc(-c2[nH]c3ccc(C4CCC(N(C)CCS(C)(=O)=O)CC4)cc3c2C(C)C)cn2ncnc12 (stereo not drawn) [Example 150, 4-(3-isopropyl-2-(8-methoxy-[1,2,4]triazolo[1,5-a]pyridin-6-yl)-1H-indol-5-yl)-N-methyl-N-(2-(methylsulfonyl)ethyl)cyclohexanamine]
0.62 | 3340 | 0.37 | Cc1c(-c2[nH]c3ccc(C4CCC(N(C)CCS(C)(=O)=O)CC4)cc3c2C(C)C)cn2ncnc2c1C (stereo not drawn) [Example 151]
4 | 5680 | 12 | COc1cc(-c2[nH]c3ccc(C4CCC(C)(NC(=O)CN(C)C)CC4)cc3c2C(C)C)cn2ncnc12 (stereo not drawn) [Example 154, 2-(dimethylamino)-N-(4-(3-isopropyl-2-(8-methoxy-[1,2,4]triazolo[1,5-a]pyridin-6-yl)-1H-indol-5-yl)-1-methylcyclohexyl)acetamide]
0.47 | 2290 | 3.2 | Cc1cc(-c2[nH]c3ccc(C4CCC(C(=O)NC5CCN(C(C)C)CC5)CC4)cc3c2C(C)C)cn2ncnc12 (stereo not drawn) [Example 158]
3 | 4800 | 59 | Cc1cc(-c2[nH]c3ccc(C4CCC(C(=O)N5CCOCC5)CC4)cc3c2C(C)C)cn2ncnc12 (stereo not drawn) [Example 161]
1 | 1920 | 7.1 | COc1cc(-c2[nH]c3ccc(C4CCC(NCC(=O)NC5COC5)CC4)cc3c2C(C)C)cn2ncnc12 (stereo not drawn) [Example 164]
0.31 | 1990 | 1.7 | COc1cc(-c2[nH]c3ccc(C4CCC(NCC(=O)NC5COC5)CC4)cc3c2C(C)C)cn2ncnc12 (stereo not drawn) [Example 165]
0.22 | 1300 | 0.62 | CNC(=O)CNC1CCC(c2ccc3[nH]c(-c4cc(OC)c5ncnn5c4)c(C(C)C)c3c2)CC1 (stereo not drawn) [Example 167]
0.4 | 1210 | 2.8 | COc1cc(-c2[nH]c3ccc(C4CCCNC4)cc3c2C(C)C)cn2ncnc12 (stereo not drawn) [Example 181, 6-(3-isopropyl-5-(piperidin-3-yl)-1H-indol-2-yl)-8-methoxy-[1,2,4]triazolo[1,5-a]pyridine]
2 | 274 | 3.9 | Cc1cc(-c2[nH]c3ccc(C4CCCNC4)cc3c2C(C)C)cc(C)n1 (stereo not drawn) [Example 187]
